One assay concerns the target T1, p38 MAP kinase (Mus musculus, UniProt P47811).
T1 construct: full length murine p38 MAP kinase; His tag; made in house; host or cells: E. coli
Nature of the assay: p38 MAP kinase Assay (GST-ATF-2 phosphorylation, His-p38 MAP kinase). Type of assay: biochemical, murine. Particulars: ATP 120 μM; substrate GST-ATF-2; 1 h at 37° C; read-out: IC50 for p38 MAP kinase inhibition.

The subject of another assay is TNF-α. Nature of the assay: Assay for Inhibition of TNF-α Production in LPS Stimulated Mice. Type of assay: in vivo. To be noted: LPS 20 mg/kg i.v.; OF1 mice (female); plasma TNF 1 hour after LPS. Here is the method: Assay for Inhibition of TNF-α Production in LPS Stimulated Mice
Injection of lipopolysaccharide (LPS) induces a rapid release of soluble tumour necrosis factor (TNF-α) into the periphery. This model is be used to analyse prospective blockers of TNF release in vivo.
LPS (20 mg/kg) is injected i.v. into OF1 mice (female, 8 week old). One (1) hour later blood is withdrawn from the animals and TNF levels are analysed in the plasma by an ELISA method using an antibody to TNF-α. […] Compounds to be evaluated are given either orally or s.c. 1 to 4 hours prior to the LPS injection. Inhibition of LPS-induced TNF-release is taken as the readout.

The test system of assay [1] is TNF-α release from hPBMCs. The experiment in a line: Assay for Inhibition of TNF-α release from hPBMCs. Type of assay: cell-based. Particulars: Homo sapiens, 3 h, IFNg (100 U/ml) and LPS, three hours, TNF-α by ELISA, read-out: IC50, suppression of TNF release.
Procedure: Human peripheral blood mononuclear cells (hPBMCs) are prepared from the peripheral blood of healthy volunteers using ficoll-hypaque density separation accordinc to the method of Hansel et al., J. Imm. […] Cells are incubated with serial dilutions of the test compounds for 30 minutes at 37° C. prior to the addition of IFNg (100 U/ml) and LPS (5 mg/ml) and subsequently further incubated for three hours. Incubation is terminated by centrifugation at 1400 RPM for 10 min. TNF-α in the supernatant is measured using a commercial ELISA (Innotest hTNFa, available from Innogenetics N.V., Zwijnaarde, Belium). Agents of the Invention are tested at concentrations of from 0 to 10 mM.

SMILES strings stand for the structures.

T1 sequence (P47811 whole entry): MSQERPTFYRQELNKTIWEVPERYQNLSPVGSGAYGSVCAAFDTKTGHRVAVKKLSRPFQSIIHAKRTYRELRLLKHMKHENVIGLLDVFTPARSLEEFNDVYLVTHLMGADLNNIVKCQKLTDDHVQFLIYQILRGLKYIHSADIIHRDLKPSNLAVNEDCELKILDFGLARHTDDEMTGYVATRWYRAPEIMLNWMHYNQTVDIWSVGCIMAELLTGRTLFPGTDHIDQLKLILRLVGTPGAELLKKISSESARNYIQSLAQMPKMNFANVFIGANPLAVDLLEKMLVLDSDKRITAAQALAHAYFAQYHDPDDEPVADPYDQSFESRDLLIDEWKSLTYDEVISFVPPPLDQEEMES
Procedure for p38 MAP kinase: The substrate (GST-ATF-2; a fusion protein comprising amino acids 1-109 of ATF-2 and the GST protein obtained by expression in E. coli) is coated onto the wells of microtiter plates (50 μl/well; 1 μg/ml in PBS/0.02% Na azide) overnight at 4° C. The following day, the microtiter plates are washed four times with PBS/0.5% Tween 20/0.02% Na azide and are blocked with PBS/2% BSA/0.02% Na Azide for 1 h at 37° C. Plates are washed again 4 times with PBS/0.5% Tween 20/0.02% Na azide. The kinase cascade reaction is then started by adding the following reactants in 10 μl aliquots to a final reaction volume of 50 μl.
1. Agents of the Invention titrated from 10 to 0.001 μM in 10-fold dilutions or solvent (DMSO) or H2 O.
2. Kinase buffer (5×); pH 7.4; 125 mM Hepes (Stock at 1M; Gibco #15630-056). […]
After 1 h at 37° C. the kinase reaction is terminated by washing the plates four times as previously described. Phosphorylated GST-ATF-2 is then detected by adding: […]
After step 1,2 and 3 the microtiter plates are washed four times with PBS/0.5% Tween 20/0.02% Na azide. After step 4, the plates are read in a Bio-Rad microplate reader in a dual wavelength mode (measurement filter 405 nm and reference filter 490 nm). The background value (without ATP) is subtracted and IC50 values are calculated using the Origin computer program (4 parameter logistic function).

Usually IC50 stands for the concentration that inhibits the measured activity by half. Consider `Nc1nc(N)c(F)c(-c2nc(-c3ccc(F)cc3)c(-c3ccncc3)[nH]2)c1F` [Example 17, 4-(4-Fluorophenyl)-5-(4-pyridyl) 2-(2,6-diamino-3,5-difluoropyridinyl)imidazole], for which the IC50 on p38 MAP kinase is roughly 10 nM; in assay [1], roughly 90 nM. The “inhibition of TNF production” value in the assay with TNF-α is “about 80%”.

These data come from patent publication US6300347A, “2-substituted 4,5-diaryl imidazoles” (Novartis AG, priority 1997, dated 2001).
